We go through 13 molecules from patent US11472795B2, “1H-indazole-3-carboxamide compounds as glycogen synthase kinase 3 beta inhibitors” (AZIENDE CHIMICHE RIUNITE ANGELINI FRANCESCO—A.C.R.A.F. …, priority 2018, dated 2022).

One data set has as its target human GSK-3β (Homo sapiens (Human), UniProt P49841). Nature of the data set: Test I - Activity on human GSK-3β (LANCE substrate phosphorylation). Particulars: human recombinant GSK-3β, 90 minutes at 22° C., five concentrations 10 μM to 1 nM, duplicate; read-out: GSK-33 IC50. The class given is biochemical. The procedure:
Human recombinant enzyme GSK-3β was incubated for 90 minutes at 22° C. in the presence of compounds or vehicle in a reaction buffer containing ATP plus 100 nM unphosphorylated specific substrate peptide (Ulight-[…]-amide). Substrate phosphorylation was measured by LANCE technology (PerkinElmer, CT, USA).
(In general: TR-FRET usually uses a lanthanide donor and a delayed reading to cut background.)

A further data set concerns the target hERG ion channel (Homo sapiens (Human), UniProt Q12809). As to the method:
(2006), Expert Opin. Ther. Targets, 10 (2): 230-241 using the recombinant human cell line CHO-K1, which stably expresses the hERG ion channel.
The degree of inhibition (%) was obtained by measuring the tail current amplitude, which is induced by a one second test pulse to −40 mV after a two second pulse to +20 mV, before and after drug incubation (the difference current was normalized to control and multiplied by 100 to obtain the percent of inhibition). […] The concentration response relationship of each compound was constructed from the percentage reductions of current amplitude by sequential concentrations.

Sequence of hERG ion channel (Q12809 whole entry): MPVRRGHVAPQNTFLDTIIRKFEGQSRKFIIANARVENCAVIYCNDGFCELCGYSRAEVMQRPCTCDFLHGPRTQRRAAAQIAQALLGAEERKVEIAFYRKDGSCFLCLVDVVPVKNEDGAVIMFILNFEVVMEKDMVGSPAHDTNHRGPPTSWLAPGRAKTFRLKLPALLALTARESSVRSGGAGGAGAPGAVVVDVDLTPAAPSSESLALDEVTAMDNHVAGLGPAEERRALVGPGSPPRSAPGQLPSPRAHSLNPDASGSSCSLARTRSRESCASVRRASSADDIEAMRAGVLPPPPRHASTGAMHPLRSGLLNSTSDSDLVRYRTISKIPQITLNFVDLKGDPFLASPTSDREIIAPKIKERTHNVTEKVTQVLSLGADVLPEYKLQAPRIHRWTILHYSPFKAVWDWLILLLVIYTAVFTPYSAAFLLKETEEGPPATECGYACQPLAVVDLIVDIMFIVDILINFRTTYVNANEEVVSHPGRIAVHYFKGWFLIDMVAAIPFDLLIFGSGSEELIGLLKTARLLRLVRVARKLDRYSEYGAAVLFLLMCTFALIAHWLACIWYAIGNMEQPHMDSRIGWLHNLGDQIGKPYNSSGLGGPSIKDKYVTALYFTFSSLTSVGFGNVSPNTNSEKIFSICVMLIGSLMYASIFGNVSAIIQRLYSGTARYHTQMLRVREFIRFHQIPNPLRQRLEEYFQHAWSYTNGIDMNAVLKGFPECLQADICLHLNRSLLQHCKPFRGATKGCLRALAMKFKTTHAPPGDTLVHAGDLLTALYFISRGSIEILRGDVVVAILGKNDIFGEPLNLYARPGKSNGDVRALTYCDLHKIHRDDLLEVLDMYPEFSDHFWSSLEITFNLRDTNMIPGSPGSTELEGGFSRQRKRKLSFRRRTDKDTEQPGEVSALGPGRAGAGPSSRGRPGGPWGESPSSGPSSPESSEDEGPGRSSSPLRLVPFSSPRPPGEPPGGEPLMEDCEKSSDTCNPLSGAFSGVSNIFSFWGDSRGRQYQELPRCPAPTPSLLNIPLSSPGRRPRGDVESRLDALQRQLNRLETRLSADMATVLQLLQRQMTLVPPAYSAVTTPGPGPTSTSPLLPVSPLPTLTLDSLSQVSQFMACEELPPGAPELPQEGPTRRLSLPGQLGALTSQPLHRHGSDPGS
Sequence of human GSK-3β (P49841 whole entry): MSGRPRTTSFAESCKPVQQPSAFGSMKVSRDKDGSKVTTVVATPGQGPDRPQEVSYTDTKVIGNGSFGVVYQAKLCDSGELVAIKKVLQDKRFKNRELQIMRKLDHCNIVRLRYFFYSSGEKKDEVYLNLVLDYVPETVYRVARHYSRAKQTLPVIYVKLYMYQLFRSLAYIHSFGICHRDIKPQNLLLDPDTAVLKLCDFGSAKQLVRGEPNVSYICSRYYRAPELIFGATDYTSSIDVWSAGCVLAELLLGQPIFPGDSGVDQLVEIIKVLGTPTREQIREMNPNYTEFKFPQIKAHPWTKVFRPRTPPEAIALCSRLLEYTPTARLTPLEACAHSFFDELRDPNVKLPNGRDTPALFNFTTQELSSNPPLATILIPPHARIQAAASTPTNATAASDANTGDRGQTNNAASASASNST

As to `O=C(NCC1CCCCO1)c1n[nH]c2ccc(-c3cccc(F)c3F)cc12` (centres unmarked) [Compound 14, 5-(2,3-Difluorophenyl)-N-((tetrahydro-2H-pyran-2-yl)methyl)-1H-indazole-3-carboxamide], the IC50 is 436 nM on human GSK-3β and over 100000 nM against hERG ion channel.
With `CN(C)Cc1cncc(-c2ccc3[nH]nc(C(=O)NCC4CCOCC4)c3c2)c1` [Compound 16, 5-(5-((Dimethylamino)methyl)pyridin-3-yl)-N-((tetrahydro-2H-pyran-4-yl)methyl)-1H-indazole-3-carboxamide], the 50% inhibitory concentration (IC50) was found to be 23 nM at human GSK-3β and 44000 nM at hERG ion channel. Also, at hERG ion channel, the “hERG/GSK-3β Ratio” value is reported as 1,913.
With `O=C(NCC1CCOCC1)c1n[nH]c2ccc(-c3cnccc3CN3CCNCC3)cc12` [Compound 24, 5-(4-(piperazin-1-ylmethyl)pyridin-3-yl)-N-((tetrahydro-2H-pyran-4-yl)methyl)-1H-indazole-3-carboxamide], the half-maximal inhibitory concentration (IC50) at human GSK-3β stood at 120 nM. At hERG ion channel, the IC50 was 93800 nM and the “hERG/GSK-3β Ratio” value is reported as 782.
Take `COCc1cncc(-c2ccc3[nH]nc(C(=O)NCC4CCS(=O)(=O)C4)c3c2)c1` (centres unmarked) [Compound 5]: the IC50 is 16 nM at human GSK-3β and over 100000 nM at hERG ion channel.
The corresponding values for `CNCc1cncc(-c2ccc3[nH]nc(C(=O)NCC4CCOCC4)c3c2)c1` [Compound 28, 5-(5-((methylamino)methyl)pyridin-3-yl)-N-((tetrahydro-2H-pyran-4-yl)methyl)-1H-indazole-3-carboxamide] are 6 nM and over 100000 nM.
As to `O=C(NCC1CCOCC1)c1n[nH]c2ccc(-c3cnccc3CN3CCCC3)cc12` [Compound 19, 5-(4-(Pyrrolidin-1-ylmethyl)pyridin-3-yl)-N-((tetrahydro-2H-pyran-4-yl)methyl)-1H-indazole-3-carboxamide], at human GSK-3β, the IC50 is 140 nM. Also, at hERG ion channel, the IC50 was found to be 16000 nM and the “hERG/GSK-3β Ratio” value is reported as 114.
Consider `CC(C)Oc1cncc(-c2ccc3[nH]nc(C(=O)NCC4CCS(=O)(=O)C4)c3c2)c1` (centres unmarked) [Compound 11], for which the 50% inhibitory concentration (IC50) is 12 nM on human GSK-3β and 5400 nM against hERG ion channel. In addition, on hERG ion channel, the “hERG/GSK-3β Ratio” value stood at 450.
For `O=C(NCC1CCOCC1)c1n[nH]c2ccc(-c3cncc(CN4CCOCC4)c3)cc12` [Compound 27, 5-(5-(morpholinomethyl)pyridin-3-yl)-N-((tetrahydro-2H-pyran-4-yl)methyl)-1H-indazole-3-carboxamide], in that order: 13 nM, 3500 nM and 269.
For `O=C(NCC1CCOCC1)c1n[nH]c2ccc(-c3cncc(CN4CCCC4)c3)cc12` [Compound 17, 5-(5-(Pyrrolidin-1-ylmethyl)pyridin-3-yl)-N-((tetrahydro-2H-pyran-4-yl)methyl)-1H-indazole-3-carboxamide], at human GSK-3β, the half-maximal inhibitory concentration (IC50) was 17 nM. On hERG ion channel, the 50% inhibitory concentration (IC50) turned out to be 6700 nM and the “hERG/GSK-3β Ratio” value is listed as 394.
With `O=C(NCC1CCOCC1)c1n[nH]c2ccc(-c3cnccc3CN3CCOCC3)cc12` [Compound 20, 5-(4-(Morpholinomethyl)pyridin-3-yl)-N-((tetrahydro-2H-pyran-4-yl)methyl)-1H-indazole-3-carboxamide carboxamide], the half-inhibitory concentration (IC50) at human GSK-3β was found to be 18.5 nM. Further, at hERG ion channel, the half-maximal inhibitory concentration (IC50) was found to be 46000 nM and the “hERG/GSK-3β Ratio” value is 2,487.
The corresponding values for `CN(C)Cc1ccncc1-c1ccc2[nH]nc(C(=O)NCC3CCOCC3)c2c1` [Compound 21, 5-(4-((Dimethylamino)methyl)pyridin-3-yl)-N-((tetrahydro-2H-pyran-4-yl)methyl)-1H-indazole-3-carboxamide] are 220 nM, 40000 nM and 182.
Consider `O=C(NC1CCS(=O)(=O)C1)c1n[nH]c2ccc(-c3cncc(CO)c3)cc12` (centres unmarked) [Compound 6, 5-(5-(Hydroxymethyl)pyridin-3-yl)-N-(1,1-dioxidotetrahydrothiophen-3-yl)-1H-indazole-3-carboxamide], for which the concentration for half-maximal inhibition (IC50) was 17 nM at human GSK-3β and over 100000 nM on hERG ion channel.
`CC(C)Oc1cncc(-c2ccc3[nH]nc(C(=O)NCC4CCOC4)c3c2)c1` (centres unmarked) [Compound 4, 5-(5-Isopropoxypyridin-3-yl)-N-((tetrahydrofuran-3-yl)methyl)-1H-indazole-3-carboxamide]: the concentration for half-maximal inhibition (IC50) at human GSK-3β amounted to 17 nM. Besides, at hERG ion channel, inhibition was half-maximal at 6200 nM (IC50) and the “hERG/GSK-3β Ratio” value is 365.

In general, IC50 refers to the midpoint of a concentration-inhibition curve.
